Reference: patent publication US8669346B2, “Bone marrow targeting peptides” (Case Western Reserve University, priority 2010, dated 2014)
“Also recorded” adds a separate entry of the source. Where no end group is shown, it is not given here.

What was measured:
bone marrow [1] = experiment: in vivo phage display screening; sequencing of phage plaques after the 5th round of injection; set-up: species or system C57BU6 mice; settings: for Sequence copy number C BM: control bone marrow; for Sequence copy number C BM / Sequence copy number Irr BM: 20 plaques per organ isolate; for Sequence copy number Irr BM: irradiated bone marrow; for Sequence copy number Lung: 20 plaques per organ isolate (Table III); for R. Leg (IRR) / Lung / L. Leg (Non-IRR): number of sequenced plaques with this sequence; for R. Leg (IRR): bone marrow of irradiated right leg; for R. Leg (IRR) / L. Leg (Non-IRR): after last injection; for Lung: after last injection (Table II); for L. Leg (Non-IRR): bone marrow of non-irradiated left leg
Description: FIG. 2 illustrates schematic view of a phage screening strategy in accordance with an aspect of the application. The entire procedure was repeated 5 times to eliminate non-specific phage. On the fifth extraction, phage plaques were isolated from multiple organs and individually collected, expanded and sequenced.
(§1) C57BU6 mice had their right leg irradiated then, 24 h later, a phage library was injected and allowed to circulate, bone marrow was then harvested and the phage pool isolated. Phage were amplified and injected into the next mouse, and this process repeated a total of five times. The phage pool was then analysed from irradiated and non-irradiated legs and the sequences determined. Individual phage were then amplified, injected into irradiated mice and tissue distribution assessed. Table 1 lists the different peptides that came out of the sequencing from plaques plated after the last injection.
The screening methodology employed for isolating bone marrow-binding peptide sequences via phage display is illustrated in FIG. 2. Included in our screening strategy was the idea of obtaining some bone marrow-binding peptides that had high affinity for irradiated bone marrow, which, although not a required feature for targeting UCB cells to marrow, could be useful for engraftment into hosts where radiation treatment is part of the conditioning regimen. After the 5th round of phage injections, phage was isolated from lungs and from irradiated and non-irradiated bone marrow and sequenced (20 plaques per organ isolate).

bone marrow [2] = experiment: distribution of individual phage injected into mice whose right leg was irradiated (FIG. 1); format: in vivo
Description: FIG. 1 illustrates the distribution of individual phage injected into mice whose right leg was irradiated. The amount of phage was normalized to tissue mass.
as §1

bone marrow [3] = experiment: phage playoff screen, phage titer (PFU) per gram of tissue (FIG. 3); format: in vivo; settings: equimolar phage injected, single mouse
Description: FIG. 3 illustrates a chart showing the results of a phage “playoff screen” where equimolar amounts of phage were injected into a mouse and plaque forming units (PFU) quantified.
We conducted a “playoff screen” to confirm bone marrow-targeting specificity. To perform a Playoff Screen, selected phage, along with a randomly selected phage from the pre-selected phage pool, were injected at equi-molar amounts into irradiated and non-irradiated mice, the bone marrows extracted, weighed and assayed for phage titer per gram of tissue; an example of the results of a Playoff Screen is shown in FIG. 3. While the data shown here are from only a single mouse, the results were important in several aspects.

UCB CD34+ cells [4] = experiment: MTT assay, toxicity on coated cells; format: cell-based, human; settings: data not shown
Description: (§2) The CCP molecule has three primary components: One, the targeting peptide sequence; two, a linker sequence containing a biotinylated amino acid; and, three a lipid moiety for integration into the cell membrane (FIG. 4). Once synthesized, all CCP molecules are tested for purity and molecular weight using HPLC and mass spectroscopy (located in the Puget Sound Blood Center); for their ability to coat UCB CD34+ cells using flow cytometry, for any toxicity effects on progenitors using MTT and hematopoietic colony forming unit (CFU) assays.
(§3) Sequences from this initial round of selection (CALFFV (SEQ ID NO:1), RAPGGET (SEQ ID NO:41), RKVVVGS (SEQ ID NO: 4) and control RSR) were contracted out to commercial vendors for synthesis into CCPs. One single-hit sequence from bone marrow, RKVVVGS (SEQ ID NO:4), termed “RKV”, was successfully synthesized, purified, and its molecular weight validated by mass spectroscopy.

bone marrow [5] = experiment: spleen and bone marrow-targeting of UCB cells coated with RKV-CCP, qRT-PCR of human ALU sequences (FIG. 5); format: in vivo, mice; settings: 3 weeks post injection
Description: FIG. 5 illustrates a chart showing ALU qRT-PCR quantification of human UCB cell numbers. The y-axis indicates human cell numbers calculated from a human cell standard curve. RKV=RKV-coated human UCB cells; NC=Non-coated human UCB cells; P=Plasma-injected. ρ values are from Student's t test between RKV and NC samples. The squares indicate the individual values for the RKV samples.
Preliminary spleen and bone marrow-targeting of UCB cells has already been conducted with the RKV peptides as a CCP molecule (RKV-CCP). UCB cells were isolated using a discontinuous Percol gradient, red blood cells were lysed with ammonium chloride, and the cells were incubated at 37° C. for a total of 10 min with RKV-CCP molecule (30 μg/ml), centrifuged, washed and stored at 4° C. until injected. Progenitors from two separate UCB units were coated and tested. Mice were sub-lethally irradiated with 250 cGy and injected with 1.0×10^8 RKV-CCP coated or non-coated UCB cells, or plasma-only control; 2 mice per group per UCB sample for a total of 4 mice per injection group. Bone marrow, spleen and blood were collected 3 weeks post injection. qRT-PCR was then conducted to assess human ALU sequences. The number of human cells found in the marrow was derived from a qRT-PCR standard curve of known amounts of human cell mixed with murine […] cells. […] Plasma-injected mice had essentially no signal.

UCB CD34+ cells [6] = experiment: cell coating by CCP, flow cytometry using FITC-labeled Streptavidin; format: cell-based, human
Description: as §2, §3

spleen = experiment: isolated phage injected into whole body irradiated mice; format: in vivo

Substance: CALFFV (listed as Homo sapiens)
- Sequence copy number C BM (bone marrow [1]): 0
- Sequence copy number Irr BM (bone marrow [1]): 4
- Sequence copy number Lung (bone marrow [1]): 1
- R. Leg (IRR) (bone marrow [1]): 4
- Lung (bone marrow [1]): 1

Substance: CGYREVSSAALE (listed as Homo sapiens) [-CGYREVSSAALE]
- R. Leg (IRR) (bone marrow [1]): 1

Substance: DDQSVSRKLAAALE (listed as Homo sapiens)
- increased signal in irradiated leg (bone marrow [2]; individual phage, irradiated versus non-irradiated leg, in words): exception
- Sequence copy number C BM (bone marrow [1]): 0
- Sequence copy number Irr BM (bone marrow [1]): 3
- Sequence copy number Lung (bone marrow [1]): 0
- R. Leg (IRR) (bone marrow [1]): 3

Substance: DGRSSRG (listed as Homo sapiens)
- Lung (bone marrow [1]): 1

Substance: DLAHDALLAWGPPSINCLTLGAP (listed as Homo sapiens)
- R. Leg (IRR) (bone marrow [1]): 1

Substance: DRN-RSA (DRNRSA; listed as Homo sapiens)
- Lung (bone marrow [1]): 1

Substance: EGGNEV (listed as Homo sapiens) [EGGN-EV]
- L. Leg (Non-IRR) (bone marrow [1]): 1
- Lung (bone marrow [1]): 1

Substance: FSGRRLVSPRPHPSN (listed as Homo sapiens)
- Lung (bone marrow [1]): 1

Substance: GDRRDSR (listed as Homo sapiens)
- L. Leg (Non-IRR) (bone marrow [1]): 1

Substance: GGL-RGGKLAAALE (GGLRGGKLAAALE; listed as Homo sapiens)
- Lung (bone marrow [1]): 1

Substance: GGNANRR (listed as Homo sapiens)
- Lung (bone marrow [1]): 1

Substance: GIRVMEK (listed as Homo sapiens)
- Sequence copy number C BM (bone marrow [1]): 0
- Sequence copy number Irr BM (bone marrow [1]): 2
- Sequence copy number Lung (bone marrow [1]): 0
- R. Leg (IRR) (bone marrow [1]): 2

Substance: GMKGVQL (listed as Homo sapiens)
- Lung (bone marrow [1]): 1

Substance: GPGLKEM (listed as Homo sapiens)
- L. Leg (Non-IRR) (bone marrow [1]): 4

Substance: GRELRGQ (listed as Homo sapiens)
- L. Leg (Non-IRR) (bone marrow [1]): 1

Substance: GRGDR-R (GRGDRR; listed as Homo sapiens)
- Lung (bone marrow [1]): 1

Substance: GRRGGAKPAVASRR (listed as Homo sapiens) [GRR-GGAKPAVASRR]
- L. Leg (Non-IRR) (bone marrow [1]): 1

Substance: KSMARHR (listed as Homo sapiens)
- L. Leg (Non-IRR) (bone marrow [1]): 1
- Lung (bone marrow [1]): 1

Substance: KVSD-SL (KVSDSL; listed as Homo sapiens)
- Lung (bone marrow [1]): 1

Substance: LDSSLFN (listed as Homo sapiens)
- L. Leg (Non-IRR) (bone marrow [1]): 1

Substance: LSTNRFV (listed as Homo sapiens)
- L. Leg (Non-IRR) (bone marrow [1]): 1

Substance: LSTRVER (listed as Homo sapiens)
- Lung (bone marrow [1]): 1

Substance: QARNGGR (listed as Homo sapiens)
- phage levels / binding in lung (bone marrow [3]): high levels; also recorded: highest level
- phage levels / titers in bone marrow (bone marrow [3]): low levels
- titers in the lung compared with bone marrow (bone marrow [3]): greater
- Sequence copy number C BM (bone marrow [1]): 0
- bone marrow specificity in the sequencing screen (bone marrow [1]; in words): no bone marrow specificity
- Sequence copy number Irr BM (bone marrow [1]): 0
- Sequence copy number Lung (bone marrow [1]): 1

Substance: QNDSASG (listed as Homo sapiens)
- Lung (bone marrow [1]): 1

Substance: RAANTAR (listed as Homo sapiens)
- Lung (bone marrow [1]): 1

Substance: RAPGGET (listed as Homo sapiens)
- Sequence copy number C BM (bone marrow [1]): 0
- Sequence copy number Irr BM (bone marrow [1]): 1
- Sequence copy number Lung (bone marrow [1]): 0

Substance: RGLQTGLEGSAWLLECGRA (listed as Homo sapiens)
- R. Leg (IRR) (bone marrow [1]): 1

Substance: RKV: cell coating peptide: RKVVVGS targeting sequence, spacer with biotin-labeled amino acid, lipid moiety for membrane insertion (also: spacer with biotin-labeled amino acid, end not given here, lipid moiety for membrane insertion, end not given here; listed as Homo sapiens)
- toxic effects on coated cells (MTT) (UCB CD34+ cells [4]): no toxic effects
- human-derived cells in bone marrow compared to control non-coated cells (bone marrow [5]; 1.0×10^8 UCB cells coated at 30 μg/ml, 250 cGy, ρ value 0.09): ~7 ×
- UCB cell numbers in bone marrow compared to spleen (bone marrow [5]): approximately 6 times
- UCB cell numbers in the spleen compared to uncoated UCB cells (bone marrow [5]; statistically significant): enhanced
- ability to coat cells (UCB CD34+ cells [6]): able to coat cells efficiently

Substance: RKVVVGS (listed as Homo sapiens)
- binding in irradiated legs (bone marrow [2]; in words): marked increase in binding
- binding in non-irradiated legs (bone marrow [2]; in words): minimal binding
- signal in the irradiated leg relative to non-irradiated leg (bone marrow [2]; individual phage, right leg irradiated, phage normalized to tissue mass): approximately 15 ×
- Sequence copy number C BM (bone marrow [1]): 0
- Sequence copy number Irr BM (bone marrow [1]): 1
- Sequence copy number Lung (bone marrow [1]): 0
- R. Leg (IRR) (bone marrow [1]): 1
- binding to spleen (spleen): highly increased binding

Substance: RQDGRHG (listed as Homo sapiens)
- Sequence copy number C BM (bone marrow [1]): 0
- Sequence copy number Irr BM (bone marrow [1]): 1
- Sequence copy number Lung (bone marrow [1]): 0
- R. Leg (IRR) (bone marrow [1]): 1

Substance: RRSGKLL (listed as Homo sapiens)
- L. Leg (Non-IRR) (bone marrow [1]): 2

Substance: SIGHRRE (listed as Homo sapiens)
- phage levels / titers in bone marrow (bone marrow [3]): minimal
- Sequence copy number C BM (bone marrow [1]): 4
- Sequence copy number Irr BM (bone marrow [1]): 0
- Sequence copy number Lung (bone marrow [1]): 0
- L. Leg (Non-IRR) (bone marrow [1]): 1

Substance: SSYALI (listed as Homo sapiens) [SS-YALI]
- Sequence copy number C BM (bone marrow [1]): 1
- Sequence copy number Irr BM (bone marrow [1]): 5
- Sequence copy number Lung (bone marrow [1]): 0
- R. Leg (IRR) (bone marrow [1]): 5

Substance: SVAPLRR (listed as Homo sapiens)
- Lung (bone marrow [1]): 1

Substance: TS-QLWC (TSQLWC; listed as Homo sapiens)
- L. Leg (Non-IRR) (bone marrow [1]): 4

Substance: TSLKDDR (listed as Homo sapiens)
- Lung (bone marrow [1]): 1

Substance: VFSGVEVSSRPHSSN (listed as Homo sapiens)
- Lung (bone marrow [1]): 1

Substance: VGPSVGP (listed as Homo sapiens)
- L. Leg (Non-IRR) (bone marrow [1]): 1

Substance: VGVRIGGSLRPHSSN (listed as Homo sapiens)
- Lung (bone marrow [1]): 1

Substance: VSGSVR (listed as Homo sapiens)
- Lung (bone marrow [1]): 1

Substance: VSKRDL (listed as Homo sapiens) [V-SKRDL]
- R. Leg (IRR) (bone marrow [1]): 1

Substance: VVRAK (listed as Homo sapiens)
- Lung (bone marrow [1]): 1
